Data published in patent US20120321610A1, “METHOD TO INHIBIT NEUROPATHIC PAIN BY INTRATHECAL INJECTION OF PROTEIN PHOSPHATASES” (priority 2011, published 2012).

What was measured:
Assay type in all cases: in vivo, rat
calcineurin = assay: Calcineurin activity in the PSD after intrathecal injection (commercial kit); conditions: control, uninjured rats; 90 minutes after intrathecal injection; vs saline; FIG. 16
Protocol: (§1) Animals were anesthetized with isoflurane and while still deeply anesthetized were euthanized with an intracardiac injection of super-saturated potassium chloride (>350 mg/ml). A laminectomy was used to rapidly (<2 min) expose the lumbar spinal cord at L5. About 1 cm of the cord was excised and placed into a Petri dish containing dry-ice-cold saline or homogenizing buffer. Subsequently, the cord was cut under a dissecting microscope into dorsal and ventral halves, and the dorsal half further divided into ipsilateral and contralateral quadrants. All tissues were immediately placed into dry-ice cooled collecting tubes, and stored at −80° C. until used.
(§2) Calcineurin activity was obtained with a commercial kit (Enzo Life Sciences, Plymouth Meeting, Pa.) and expressed as nmol of phosphate released/min/mg of protein. Immunoblots were performed as described previously (Miletic et al., 2002). Calcineurin isoform […] (Millipore, Billerica, Mass.) was used at a dilution of 1:1000. Developed membranes were stripped and re-probed with beta III tubulin (1:1000; Promega, Madison, Wis.) as the loading control. Protein levels were estimated with the BioSpectrum 500 Image Analysis System (UVP, Upland, Calif.). The calcineurin Aα content within a gel was expressed over the beta III tubulin content, and then the content in sham-operated or CCI animals was normalized to those in control animals. […]

[1] = tested on: control, uninjured animals; assay: Mechanical withdrawal threshold in control, uninjured animals after intrathecal injection; conditions: uninjured rats
Source text: (§3) An automated instrument was used for assessing touch sensitivity. An animal was placed inside a plastic box on a raised plasticized wire-mesh surface. The animal is free to move within the confines of the box. The animal acclimates to the apparatus, and a touch stimulator unit was then slid under the animal to position a stainless steel filament (0.5 mm diameter) under the plantar surface of a paw. A button press causes the filament to move perpendicularly to the tested paw. The filament exerts an increasing force, starting below the threshold of detection and increases until the animal withdraws the paw. The force applied to the filament that results in paw withdrawal was recorded.
(§4) For both behaviors, the ipsilateral, injured, paw was tested four times to obtain an average value. Each test is separated by 5 min. Persons performing behavioral tests are blinded to treatment whenever possible.
(§5) The animals were anesthetized with isoflurane and securely held in the sternal position. A 25 μl Hamilton-brand microsyringe was fitted with a 25-gauge, 1-inch hypodermic needle and the needle inserted between the dorsal aspects of L5 and L6 perpendicular to the vertebral column. This site corresponds to the region where the spinal cord ends and the cauda equina begins and was chosen to reduce the possibility of spinal damage. […]

[2] = tested on: control, uninjured animals; assay: Thermal withdrawal latency in control, uninjured animals after intrathecal injection; conditions: uninjured rats
Protocol: (§6) Thermal sensitivity is assessed using the hindpaw withdrawal test to a thermal noxious stimulus. An animal was placed inside a plastic box on a raised glass surface. The animal is free to move within the confines of the box. A movable, focused beam of radiant heat was placed under the glass on which the animal is resting a paw. The glass is progressively heated until a noxious threshold was reached to elicit paw withdrawal. As soon as the animal moved its paw, a photocell in the metal enclosure containing the heat source turned off the light. The latency (in sec) for the animal to withdraw its paw was recorded by a digital automatic display.
as §4
as §5, with “damage. The needle was advanced until a slight but noticeable movement of the tail or the leg was observed.” for “damage.”

[3] = tested on: CCI animals (chronic constriction injury of the sciatic nerve); assay: Mechanical withdrawal threshold in CCI animals after intrathecal injection; conditions: for analgesia, mechanical stimulus threshold: group data, FIG. 12
Source text: as §3, §4
(§7) Animals were anesthetized with isoflurane and prepared for surgery by clipping the hair over the mid-thigh area of the left hind leg, scrubbing the clipped area with povidone iodine and alcohol (repeated three times), and lubricating the eyes with sterile ophthalmic ointment. The sciatic nerve was exposed at mid-thigh level by blunt dissection through the biceps femoris muscles. The nerve was freed of adherent tissue, and four ligatures (4.0 chromic gut) were spaced about 1 mm apart. Care was taken to tie the ligatures so that the nerve trunk is just barely constricted when viewed with a dissecting microscope at 40×. […] The incision was closed in layers using chromic gut sutures for muscle and silk sutures for skin.
(§8) A stock solution of calcineurin enzyme at a concentration of 100 units/microliter is commercially available (Enzo Life Sciences, Plymouth Meeting, Pa., Cat. No. BML-SE163-5000). The stock solution was diluted 1:10 with saline (1 part of calcineurin stock solution+9 parts of saline) to make a diluted calcineurin solution of 10 units/microliter. Ten microliters of the diluted calcineurin solution was then injected intrathecally. In other words the dose is 100 units of calcineurin per animal. Animal weights were approximately 200 to 250 g. This equates to a dosage of roughly 3 μg/kg body weight (in the rat).
(§9) The animals were anesthetized with isoflurane and securely held in the sternal position. A 25 μl Hamilton-brand microsyringe was fitted with a 25-gauge, 1-inch hypodermic needle and the needle inserted between the dorsal aspects of L5 and L6 perpendicular to the vertebral column. This site corresponds to the region where the spinal cord ends and the cauda equina begins and was chosen to reduce the possibility of spinal damage. The needle was advanced until a slight but noticeable movement of the tail or the leg was observed. […] Drugs were injected in a volume of 10 μl and the syringe was held in place for a few seconds before being progressively and slowly withdrawn to avoid drug outflow. The rat then recovers from the anesthesia.

[4] = tested on: CCI animals (chronic constriction injury of the sciatic nerve); assay: Thermal withdrawal latency in CCI animals after intrathecal injection; conditions: for analgesia, thermal latency threshold: group data, 100 units intrathecal, FIG. 13
Protocol: as §6, §4, §7, §8, §9

calcineurin Aα isoform = assay: Immunoblot of calcineurin Aα content in the post-synaptic density of spinal dorsal horn neurons after intrathecal injection; conditions: CCI rats; 90 min after single intrathecal injection of 100 units; vs saline; FIG. 7
Protocol: as §1, §2

## FK-506 [reference compound]
calcineurin
  calcineurin activity in PSD: significant decrease
[1]; 90 minutes after intrathecal injection, vs saline, FIG. 14
  mechanical withdrawal thresholds: significant decrease
[2]; 90 minutes after intrathecal injection, vs saline, FIG. 15
  thermal latencies: significant decrease

## calcineurin
[3]; CCI rats 7 days post-ligation, 100 units in 10 μl intrathecal, retested 90 min after injection, FIG. 5
  mechanical hypersensitivity: significantly attenuated
[3]; CCI rats, 100 units intrathecal, mechanical and thermal tests
  duration of pain relief from a single intrathecal injection: ≥ 4 days
[3]; CCI rats, 2-day post-injection group, 100 units intrathecal
  analgesia, mechanical stimulus threshold: provided analgesia
[3]; CCI rats, 4-day post-injection group, 100 units intrathecal
  analgesia, mechanical stimulus threshold: provided analgesia
[3]; CCI rats, 6-day post-injection group, 100 units intrathecal
  analgesia, mechanical stimulus threshold: disappeared
[3]; CCI rats, single intrathecal injection 100 units, 2 days after injection, same animals retested (continuous), FIG. 8
  mechanical hypersensitivity: significantly attenuated
[3]; CCI rats, single intrathecal injection 100 units, 4 days after injection, continuous, FIG. 8
  mechanical hypersensitivity: continued to exhibit analgesia
[3]; CCI rats, single intrathecal injection 100 units, 6 days after injection, continuous, FIG. 8
  mechanical hypersensitivity: exhibited once again mechanical and thermal hypersensitivity
[4]; CCI rats 7 days post-ligation, 100 units in 10 μl intrathecal, retested 90 min after injection, FIG. 6
  thermal hypersensitivity: significantly attenuated
[4]; CCI rats, 2-day post-injection group
  analgesia, thermal latency threshold: provided analgesia
[4]; CCI rats, 4-day post-injection group
  analgesia, thermal latency threshold: provided analgesia
[4]; CCI rats, 6-day post-injection group
  analgesia, thermal latency threshold: disappeared
[4]; CCI rats, single intrathecal injection 100 units, 2 days after injection, continuous, FIG. 9
  thermal hypersensitivity: significantly attenuated
[4]; CCI rats, single intrathecal injection 100 units, 4 days after injection, continuous, FIG. 9
  thermal hypersensitivity: continued to exhibit analgesia
[4]; CCI rats, single intrathecal injection 100 units, 6 days after injection, continuous, FIG. 9
  thermal hypersensitivity: exhibited once again mechanical and thermal hypersensitivity
[1]; single intrathecal injection, FIG. 10
  behavior, mechanical stimulation: not modified
Calcineurin Aα isoform
  calcineurin Act in ipsilateral PSD: significantly more
[2]; single intrathecal injection, FIG. 11
  behavior, thermal stimulation: not modified
